Assay results: PMC2904697, “A Screen for Kinetochore-Microtubule Interaction Inhibitors Identifies Novel Antitubulin Compounds” (PLoS ONE, 2010)

Key:
[1] = tested on: recombinant CLIP-170^488 binding to taxol-stabilized MTs; experiment: CLIP-170^488 binding to taxol-stabilized MTs (specificity control); conditions: compound B at 50 µmol/l
From the text: Figure 2 Compound B prevents the recombinant Ndc80 kinetochore complex from binding to taxol-stabilized microtubules. Effect of compound B (50 µmol/l) on binding of the Ndc80^488 complex to rhodamine-labeled, taxol-stabilized MTs as assayed using inverted wide-field fluorescence microscopy. The scale bar represents 4 µm (A). Structure of compound B; 6-furan-2-yl-3-methyl-4-oxo-4,5,6,7-tetrahydro-1H-indole-2-carboxylic acid (tetrahydro-furan-2-yl)methyl ester (B). Measurement of the IC50 value of compound B using total internal reflection fluorescence microscopy. The scale bar represents 4 µm (C). Compound B (50 µmol/l) prevented MT-associating protein CLIP-170^488, used as a specificity control, from binding to taxol-stabilized MTs. The scale bar represents 4 µm (D). […] The scale bar represents 4 µm (E).
A compound inhibiting the Ndc80^488 complex-MT interaction could act either against the complex or against the MTs. To probe the specificity of compound B toward the Ndc80^488 complex, we examined its ability to inhibit MT binding of recombinant CLIP-170^488, a MT plus-end tracking protein.

HeLa cells = experiment: Ability of the compound to enter cells; format: cell-based, human
From the text: During the last twenty-five years antispindle drugs have been used with great success in the fight against cancer. However, as cancer cells are developing resistance against these drugs, there is an urgent need for compounds targeting alternative mitotic targets. As kinetochores orchestrate chromosome segregation and comprise >100 proteins, they are appealing mitosis-specific drug targets. The high antitumor activity of compounds inhibiting kinetochore regulators (Aurora kinase, PLK1) and the kinetochore-associated kinesin CENP-E supports the concept of targeting kinetochore function to eradicate proliferating cells, [9], [19]. The complexity of kinetochores, the lack of insight into intrakinetochore protein-protein contacts and protein-activity relationships, as well as the difficulty to produce kinetochore subunits in large quantities for use in in vitro screens has long hampered the conversion of structural kinetochore components into anticancer drug targets. […] As the Ndc80 complex can be produced recombinantly in high quantity and because the recombinant complex is fully active as shown following injection in cells we focused on this complex to screen for inhibitors of kinetochore-MT binding. […]

SMILES: N#CC(=Cc1ccc(-c2ccc(C(=O)O)cc2)o1)c1nc2ccccc2[nH]1 [compound C, 4-5-2-1H-benzimidazol-2-yl-2-cyano-vinyl-furan-2-yl-benzoic acid]
- Effect on binding of CLIP-170^488 to taxol-stabilized MTs [1]: did not inhibit
- Cell entry (HeLa cells): inability of the compound to enter cells
